Test results as given in patent US10208074B2, “Pyrazole compounds and method for making and using the compounds” (Rigel Pharmaceuticals, Inc., priority 2015, dated 2019).
pEC50: −log10 of the molar value. Where a name gives a salt, the structure may show the parent alone. Read-outs that look alike come from different tables or passages of the source.

What was measured:
IL-23 (p19/p40) = assay: IL23-p19 ELISA, Dendritic, LPS (compound screening using DC cells); format: cell-based, Human; settings: for pEC50: PBMC-derived DC cells, IFNγ primed, LPS 1 μg/ml, 18 hours, 10 pt, read-out: IL23-p19 ELISA, Dendritic, LPS, 10 pt, EC50
In short: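 IL-23 in supernatants quantified by sandwich ELISA (anti-p19 capture, biotinylated anti-p40 detection, chemiluminescent readout) after 18 h LPS (1 μg/ml) stimulation. Cells were monocyte-derived DCs (GM-CSF/IL-4, 7 d), IFNγ-primed 24 h and given compound 1 h before LPS; viability by CellTiter Glo.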

IL-23p19 = assay: LPS induced IL23p19 in THP-1 cells (with IFNγ primed) assay; format: cell-based, Human; settings: for pEC50: THP-1 cells, IFNγ primed, LPS 1 ug/mL, 18 hours, 10 pt, read-out: IL23-p19 ELISA, THP1-IFNy, LPS, 10 pt EC50
In short: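 Readout is secreted IL-23p19, quantified by chemiluminescent sandwich ELISA after 18 h LPS (1 ug/mL) stimulation of THP-1 cells that had been IFNγ-primed (50 ng/mL, ~18 h) and given compound 1 h beforehand at 37 °C. EC50 derived by curve fit; cytotoxicity tracked with Cell Titer Glo.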

CCOCCn1cc(NC(=O)c2ccc(-c3c[nH]nc3C(F)(F)F)o2)c(-c2ccccn2)n1 [Compound I-41, N-(1-(2-ethoxyethyl)-3-(pyridin-2-yl)-1H-pyrazol-4-yl)-5-(3-(trifluoromethyl)-1H-pyrazol-4-yl)furan-2-carboxamide formate]
pEC50 (IL-23 (p19/p40); Homo sapiens, 18 h): 5.40
pEC50 (IL-23p19; Homo sapiens, THP-1, 18 h): 5.59

CN1CCN(c2ccc(-c3nn(C)cc3NC(=O)c3ccc(-c4cn[nH]c4)o3)nc2)CC1 [Compound I-106, N-(1-methyl-3-(5-(4-methylpiperazin-1-yl)pyridin-2-yl)-1H-pyrazol-4-yl)-5-(1H-pyrazol-4-yl)furan-2-carboxamide]
pEC50 (IL-23 (p19/p40); Homo sapiens, 18 h): 5.91
pEC50 (IL-23p19; Homo sapiens, THP-1, 18 h): 4.72

CCO[C@H]1C[C@@H](n2cc(NC(=O)c3csc(-c4cn[nH]c4)n3)c(-c3ncccc3F)n2)C1 [II-157, N-(1-((cis)-3-ethoxycyclobutyl)-3-(3-fluoropyridin-2-yl)-1H-pyrazol-4-yl)-2-(1H-pyrazol-4-yl)thiazole-4-carboxamide]
pEC50 (IL-23 (p19/p40); Homo sapiens, 18 h): 6.25
pEC50 (IL-23p19; Homo sapiens, THP-1, 18 h): 7.21

COCCOCCn1cc(NC(=O)c2csc(-c3cn[nH]c3)n2)c(-c2nccs2)n1 [II-113, N-(1-(2-(2-methoxyethoxy)ethyl)-3-(thiazol-2-yl)-1H-pyrazol-4-yl)-2-(1H-pyrazol-4-yl)thiazole-4-carboxamide]
pEC50 (IL-23 (p19/p40); Homo sapiens, 18 h): 6.54
pEC50 (IL-23p19; Homo sapiens, THP-1, 18 h): 7.07

CCN(CC)CCn1cc(NC(=O)c2csc(-c3cn[nH]c3)n2)c(-c2ccccn2)n1 [II-49, N-(1-(2-(diethylamino)ethyl)-3-(pyridin-2-yl)-1H-pyrazol-4-yl)-2-(1H-pyrazol-4-yl)thiazole-4-carboxamide]
pEC50 (IL-23 (p19/p40)): 7.09
pEC50 (IL-23p19): 6.62

CCOCCn1cc(NC(=O)c2ccc(-c3cn[nH]c3)o2)c(-c2ccccn2)n1 [Compound I-38, N-(1-(2-ethoxyethyl)-3-(pyridin-2-yl)-1H-pyrazol-4-yl)-5-(1H-pyrazol-4-yl)furan-2-carboxamide]
pEC50 (IL-23 (p19/p40)): 7.24
pEC50 (IL-23p19): 6.76

O=C(Nc1cn([C@H]2C[C@@H](OCC(F)(F)F)C2)nc1-c1ccccn1)c1csc(-c2cn[nH]c2)n1 [II-161, 2-(1H-pyrazol-4-yl)-N-(3-(pyridin-2-yl)-1-((cis)-3-(2,2,2-trifluoroethoxy)cyclobutyl)-1H-pyrazol-4-yl)thiazole-4-carboxamide]
pEC50 (IL-23 (p19/p40); Homo sapiens, 18 h): 6.32
pEC50 (IL-23p19; Homo sapiens, THP-1, 18 h): 6.95

CCO[C@H]1C[C@@H](n2cc(NC(=O)c3ccc(-c4c[nH]nc4C)o3)c(-c3ccccn3)n2)C1 [Compound I-29, N-(1-((1,3-cis)-3-ethoxycyclobutyl)-3-(pyridin-2-yl)-1H-pyrazol-4-yl)-5-(3-methyl-1H-pyrazol-4-yl)furan-2-carboxamide]
pEC50 (IL-23 (p19/p40); Homo sapiens, 18 h): 7.01
pEC50 (IL-23p19; Homo sapiens, THP-1, 18 h): 6.69

Cn1cc(NC(=O)c2csc(-c3cnn(COP(=O)(O)O)c3)n2)c(-c2ccccn2)n1 [II-38, Potassium (4-(4-((1-methyl-3-(pyridin-2-yl)-1H-pyrazol-4-yl)carbamoyl)thiazol-2-yl)-1H-pyrazol-1-yl)methyl phosphate]
EC50 (IL-23 (p19/p40); Homo sapiens, 18 h, read-out: IL23-p19 ELISA, Dendritic, LPS, 10 pt, EC50 (μM)): 0.771 µM
EC50 (IL-23p19; Homo sapiens, THP-1, 18 h, read-out: IL23-p19 ELISA, THP1-IFNy, LPS, 10 pt EC50 (μM)): 0.505 µM

O=C(Nc1cn(C2CN(C(=O)C3CC3(F)F)C2)nc1-c1ccccn1)c1ccc(-c2cn[nH]c2)o1 (centres unmarked) [Compound I-103, N-[1-{1-(2,2-difluorocyclopropane-1-carbonyl)azetidin-3-yl}-3-(pyridine-2-yl)-1H-pyrazol-4-yl]-5-(1H-pyrazol-4-yl)furan-2-carboxamide, formate salt]
pEC50 (IL-23 (p19/p40); Homo sapiens, 18 h): 7.26
pEC50 (IL-23p19; Homo sapiens, THP-1, 18 h): 7.51

COCCn1cc(NC(=O)c2ccc(-c3cnn(COP(=O)(OC(C)(C)C)OC(C)(C)C)c3)o2)c(-c2ccccn2)n1 [Compound I-10, di-tert-butyl ((4-(5-((1-(2-methoxyethyl)-3-(pyridin-2-yl)-1H-pyrazol-4-yl)carbamoyl)furan-2-yl)-1H-pyrazol-1-yl)methyl) phosphate]
pEC50 (IL-23 (p19/p40); Homo sapiens, 18 h): 5.49
pEC50 (IL-23p19; Homo sapiens, THP-1, 18 h): 4.66

Cn1cc(NC(=O)c2ccc(-c3cn[nH]c3)o2)c(-c2ccc(OCC(C)(C)O)cn2)n1 [Compound I-107, N-(3-(5-(2-hydroxy-2-methylpropoxy)pyridin-2-yl)-1-methyl-1H-pyrazol-4-yl)-5-(1H-pyrazol-4-yl)furan-2-carboxamide]
pEC50 (IL-23 (p19/p40); Homo sapiens, 18 h): 6.52
pEC50 (IL-23p19; Homo sapiens, THP-1, 18 h): 6.07

CCO[C@H]1C[C@@H](n2cc(NC(=O)c3ccc(-c4cn[nH]c4)o3)c(-c3cccc(C(F)(F)F)n3)n2)C1 [Compound I-116, N-(1-((1s,3s)-3-ethoxycyclobutyl)-3-(6-(trifluoromethyl)pyridin-2-yl)-1H-pyrazol-4-yl)-5-(1H-pyrazol-4-yl)furan-2-carboxamide]
pEC50 (IL-23 (p19/p40); Homo sapiens, 18 h): 6.66
pEC50 (IL-23p19; Homo sapiens, THP-1, 18 h): 6.64

O=C(Nc1cn([C@H]2CC[C@H](NCC(F)F)CC2)nc1-c1ncccn1)c1csc(-c2cn[nH]c2)n1 [II-179, N-(1-((1r,4r)-4-((2,2-difluoroethyl)amino)cyclohexyl)-3-(pyrimidin-2-yl)-1H-pyrazol-4-yl)-2-(1H-pyrazol-4-yl)thiazole-4-carboxamide]
pEC50 (IL-23 (p19/p40); Homo sapiens, 18 h): 7.13
pEC50 (IL-23p19; Homo sapiens, THP-1, 18 h): 7.90

C[C@]1(O)C[C@H](n2cc(NC(=O)c3csc(-c4cn[nH]c4)n3)c(-c3ccccn3)n2)C1 [II-79, N-(1-((1r,3r)-3-hydroxy-3-methylcyclobutyl)-3-(pyridin-2-yl)-1H-pyrazol-4-yl)-2-(1H-pyrazol-4-yl)thiazole-4-carboxamide]
pEC50 (IL-23 (p19/p40); Homo sapiens, 18 h): 7.82
pEC50 (IL-23p19; Homo sapiens, THP-1, 18 h): 7.12

CCO[C@H]1C[C@@H](n2cc(NC(=O)c3ccc(-c4cn[nH]c4)o3)c(-c3ccc(F)cn3)n2)C1 [Compound I-138, N-(1-((1s,3s)-3-ethoxycyclobutyl)-3-(5-fluoropyridin-2-yl)-1H-pyrazol-4-yl)-5-(1H-pyrazol-4-yl)furan-2-carboxamide formate]
pEC50 (IL-23 (p19/p40); Homo sapiens, 18 h): 6.16
pEC50 (IL-23p19; Homo sapiens, THP-1, 18 h): 6.03

O=C(Nc1cn([C@H]2CC[C@H](O)CC2)nc1-c1ccccn1)c1csc(-c2cn[nH]c2)n1 [II-143, N-(1-((trans)-4-hydroxycyclohexyl)-3-(pyridin-2-yl)-1H-pyrazol-4-yl)-2-(1H-pyrazol-4-yl)thiazole-4-carboxamide]
pEC50 (IL-23 (p19/p40); Homo sapiens, 18 h): 7.79
pEC50 (IL-23p19; Homo sapiens, THP-1, 18 h): 7.51

CCOCCn1cc(NC(=O)c2ccc(-c3cnn(C)c3)o2)c(-c2ccccn2)n1 [Compound I-45, N-(1-(2-ethoxyethyl)-3-(pyridin-2-yl)-1H-pyrazol-4-yl)-5-(1-methyl-1H-pyrazol-4-yl)furan-2-carboxamide formate]
pEC50 (IL-23 (p19/p40); Homo sapiens, 18 h): 5.26
pEC50 (IL-23p19; Homo sapiens, THP-1, 18 h): 5.96

COC1CC(n2cc(NC(=O)c3ccc(-c4cn[nH]c4)o3)c(-c3ccccn3)n2)C1 (centres unmarked) [Compound I-75, N-(1-((1s,3s)-3-methoxycyclobutyl)-3-(pyridin-2-yl)-1H-pyrazol-4-yl)-5-(1H-pyrazol-4-yl)furan-2-carboxamide formate]
pEC50 (IL-23 (p19/p40)): 7.71
pEC50 (IL-23p19): 6.99
